Experimental findings from patent US20090209485A1, “MODULATING ANGIOGENESIS WITH NOD FACTORS SUCH AS GLUCOSAMINE OLIGOSACCHARIDES” (priority 2005, published 2009) are described below.

Common to all, as to assay type: cell-based
The test system of assay [1] is rat aorta. As to the kind of experiment: Rat aorta angiogenesis assay (vessel outgrowth from aorta fragments in fibrin gel). On the procedure: Thoracic aortas were excised from three to nine month-old female Fischer rats, rinsed in Hanks balanced salt solution containing 2.5 μg/ml amphotericin B (Sigma, St Louis, Mo.), cleaned of periadventitial fibroadipose tissue and cross-sectioned at 1 mm intervals. The fragments were freed of residual clots. Dissecting and sectioning of the vessels was performed with the aid of a dissecting microscope.
Assays were performed in 48-well culture plates (Costar, Cambridge, Mass.). Five hundred microlitres of 3 mg/ml fibrinogen (bovine plasma, Calbiochem, La Jolla, Calif.) in serum free-Medium 199 (GibcoBRL) was added to each well with 5 μg/ml of aprotinin (Sigma) to prevent fibrinolysis by the vessel fragments. One vessel fragment was placed in the centre of the well and 15 μl of thrombin (50 NIH U/ml in 0.15M NaCl: bovine plasma: Sigma St Louis, Mo.) was added to the well and mixed rapidly with the fibrinogen. Fibrin gel formation usually occurred within 30 seconds and ideally the vessel fragment remained suspended in the centre of the gel. After gel formation, 0.5 ml/well of Medium M199 supplemented with 20% fetal calf serum (FCS) (Sigma), 0.1% 6-aminocaproic acid, 1% L-glutamine, 1%-amphotericin B and 0.6% gentamycin was added. The substances tested for angiogenesis modulating activity (compounds PI-88, 1, 2, 3, 4, 5, 6 and 7) were dissolved in 50% acetonitrile in ultrapure water and diluted at least 1:100 in the supplemented medium M199. Immediately after embedding of vessel fragment in the fibrin gels, 0.5 ml of medium containing the test substance was added to each well and each treatment was performed in six wells. Control cultures received medium without the test substance. Vessels were cultured at 37° C. in 5% CO2 in air for five days and the medium was changed on day four. Vessel growth was quantified manually under 40× magnification on day five, with growth being estimated as the percentage of the field (×40) around the vessel fragment that was occupied by vessel outgrowths.

Assay [2] relates to rat aorta. The assay is described as above. The settings on record: Table 4, day 6, concentration not given.
Assay [3] concerns HUVEC (human umbilical vein endothelial cells). As to the kind of experiment: HUVEC assay: tube formation on matrigel. To be noted: 100 μg/ml, overnight incubation; for Inhibition of HUVEC cell “tiling” and/or change in tube morphology+/−: Matrigel + HUVEC. On the procedure:
HUVEC (human umbilical vein endothelial cells) form tubes on a matrigel support. The tubes form a “paving tile” formation after overnight incubation. Nod factor and derivative thereof were added at 100 μg/ml to determine if they inhibited tube formation and/or caused a change in tube morphology.

Another assay relates to Mouse Aorta. As to the kind of experiment: Mouse aorta angiogenesis assay (vessel outgrowth from aorta fragments in fibrin gel). To be noted: Table 5. Here is the method:
Thoracic aortas were excised from 6-8 week old female C57 BL/6 mice, rinsed in Hanks balanced salt solution containing 2.5 μg/ml amphotericin B (Sigma, St Louis, Mo.) cleaned of periadventitial fibroadipose tissue and cross-sectioned at 1 mm intervals. The fragments were freed of residual clots. Dissecting and sectioning of the vessels was performed with the aid of a dissecting microscope. Assays were performed in 48-well culture plates (Costar, Cambridge, Mass.). Five hundred microlitres of 3 mg/ml fibrinogen (bovine plasma, Calbiochem, La Jolla, Calif.) in serum free-Medium 199 (GibcoBRL)) was added to each well with 5 ug/ml of aprotinin (Sigma) to prevent fibrinolysis by the vessel fragments. One vessel fragment was placed in the centre of the well and 15 ul of thrombin (50 NIH U/ml in 0.15M NaCl: EC 3.4.21.5 bovine plasma: Sigma St Louis, Mo.) was added to the well and mixed rapidly with the fibrinogen. Fibrin gel formation usually occurred within 30 seconds and ideally the vessel fragment remained suspended in the centre of the gel. […] Vessel growth was quantified manually under 40× magnification on day 7, with growth being estimated as the percentage of the field (×40) around the vessel fragment that was occupied by vessel outgrowths (see Table 5). • ^§Brown, K. J., Maynes, S. F., Bezos, A., Maguire, D. J., Ford, M. D., & Parish, C. […]

Where [4] appears, read: Table 1, 100 μg/mL, % of field around vessel fragment occupied by vessel outgrowths, control 82 ± 3.2.
[5] abbreviates: Table 1, 100 μg/mL, '+' = growth above control.
Setting [6] is: Table 3, Assay 1, testing at 100 μg/mL.
The mark [7] stands for this setting: Table 3, Assay 2, testing at 100 μg/mL, '+' = growth above control.
[8] abbreviates: Table 3, Assay 3, testing at 100 μg/mL, '+' = growth above control.
The mark [9] stands for this setting: Table 3, Assay 4, testing at 10 μg/mL.
Where [10] appears, read: Table 3, Assay 5, testing at 10 μg/mL.
The mark [11] stands for this setting: Table 4, Assay 1, day 5, control growth 27%, concentration not given.
The mark [12] stands for this setting: Table 4, Assay 2, day 5, control growth 48%, concentration not given.
[13] abbreviates: Table 1, 10 μg/mL, % of field occupied by vessel outgrowths, control 82 ± 3.2.
[14] abbreviates: Table 1, 10 μg/mL, '+' = growth above control.

Take PI-88 [reference compound]: the “% Growth” value came out at 25 ± 5.4% in the assay with rat aorta [1] (setting [4]) and 39 ± 6.1% with rat aorta [1] (Table 2, 100 μg/mL, control 74 ± 3.8). Moreover, the “% Inhibit.” value in the assay on rat aorta [1] (setting [5]) came to 69%; in the assay with rat aorta [1] (Table 2, 100 μg/mL) it was 47%. Further, the “% Inhibition” value in the assay with rat aorta [1] (setting [6]) worked out at 82%; with rat aorta [1] (setting [7]), 77%; in the assay on rat aorta [1] (setting [8]), 68%; in the assay with rat aorta [1] (setting [9]) it was 18%; with rat aorta [1] (setting [10]) it was 14%; with rat aorta [1] (setting [11]), 91%. Moreover, the “% Inhibition” value stood at 77% in the assay with rat aorta [1] (Table 4, Assay 1, day 7, control growth 68%, concentration not given); 66% in the assay with rat aorta [1] (setting [12]); 68% in the assay with rat aorta [1] (Table 4, Assay 2, day 7, control growth 83%, concentration not given); 80% in the assay with rat aorta [2] (Assay 1, control growth 43%); 70% with rat aorta [2] (Assay 2, control growth 63%); 30% with Mouse Aorta (10 μg/ml). The “% Inhibition” value in the assay with Mouse Aorta (100 μg/ml) was found to be 93%. Besides, the “Inhibition of HUVEC cell “tiling” and/or change in tube morphology+/−” value in assay [3] is recorded as “Yes”. In addition, the “effect on HUVEC tube formation” value in assay [3] (matrigel) is given as “affected tube formation”.
In the case of `CCCCCCC=CCCCOc1cccc(C(=O)N[C@H]2[C@H](O[C@H]3[C@H](O)[C@@H](NC(C)=O)[C@H](O[C@H]4[C@H](O)[C@@H](NC(C)=O)[C@H](O[C@H]5[C@H](O)[C@@H](NC(C)=O)[C@H](O[C@H]6[C@H](O)[C@@H](NC(C)=O)C(O)O[C@@H]6CO[C@@H]6O[C@@H](C)[C@@H](O)[C@@H](O)[C@@H]6O)O[C@@H]5CO)O[C@@H]4CO)O[C@@H]3CO)O[C@H](CO)[C@@H](O)[C@@H]2O)c1` (some centres unmarked) [Compound 25], the “% Inhibition” value in the assay with rat aorta [1] (setting [7]) is on record as 76%; in the assay on rat aorta [1] (setting [8]), 73%; with rat aorta [1] (setting [9]), 24%; in the assay with rat aorta [1] (setting [10]), 21%; in the assay with rat aorta [1] (Table 3, Assay 6, testing at 1.0 μg/mL), 8%; in the assay on rat aorta [1] (Table 3, Assay 7, testing at 1.0 μg/mL) it was 3%.
Regarding `CC(=O)N[C@H]1[C@H](O[C@H]2[C@H](O)[C@@H](NC(C)=O)[C@H](O[C@H]3[C@H](O)[C@@H](NC(C)=O)C(O)O[C@@H]3CO)O[C@@H]2CO)O[C@H](CO)[C@@H](O[C@@H]2O[C@H](CO)[C@@H](O)[C@H](O)[C@H]2N)[C@@H]1O` (some centres unmarked) [Compound 23], the “% Inhibition” value was 66% in the assay with rat aorta [1] (setting [7]), 29% in the assay with rat aorta [1] (setting [8]), 14% in the assay with rat aorta [1] (setting [9]) and 24% in the assay with rat aorta [1] (setting [10]).
Regarding `CC(=O)N[C@H]1C(O)O[C@H](CO)[C@@H](O[C@@H]2O[C@H](CO)[C@@H](O)[C@H](O)[C@H]2N)[C@@H]1O` (some centres unmarked) [Compound 22], the “% Inhibition” value in the assay with rat aorta [1] (setting [6]) amounted to 5%; in the assay on rat aorta [1] (setting [9]), 24%; in the assay on rat aorta [1] (setting [10]), 16%; in the assay on rat aorta [1] (setting [11]) it was 33%; in the assay with rat aorta [1] (setting [12]), 6%; in the assay on rat aorta [2] (Assay 2, control growth 63%), 0%.
`CC(=O)N[C@H]1[C@H](O[C@H]2[C@H](O)[C@@H](NC(C)=O)[C@H](O[C@H]3[C@H](O)[C@@H](NC(C)=O)C(O)O[C@@H]3CO[C@@H]3O[C@@H](C)[C@@H](O)[C@@H](O)[C@@H]3O)O[C@@H]2CO)O[C@H](CO)[C@@H](O[C@@H]2O[C@H](CO)[C@@H](O[C@@H]3O[C@H](CO)[C@@H](O)[C@H](O)[C@H]3NC(=O)Cc3ccccc3)[C@H](O)[C@H]2NC(C)=O)[C@@H]1O` (some centres unmarked) [Compound 24]: the “% Inhibition” value in the assay with rat aorta [1] (setting [9]) is on record as 3%; in the assay with rat aorta [1] (setting [10]), 1%; in the assay on rat aorta [1] (setting [12]) it was 6%; with rat aorta [2] (Assay 2, control growth 63%), 8%.
Regarding `CC(=O)N[C@H]1[C@H](O[C@H]2[C@H](O)[C@@H](NC(C)=O)[C@H](O[C@H]3[C@H](O)[C@@H](NC(C)=O)C(O)O[C@@H]3COS(=O)(=O)O)O[C@@H]2CO)O[C@H](CO)[C@@H](O[C@@H]2O[C@H](CO)[C@@H](O)[C@H](O)[C@H]2N)[C@@H]1O` (some centres unmarked) [Compound 21], the “% Inhibition” value with rat aorta [1] (setting [6]) came out at 74%; in the assay on rat aorta [1] (setting [7]) it was 41%; with rat aorta [1] (setting [8]), 40%; in the assay on rat aorta [1] (setting [9]) it was 24%; in the assay on rat aorta [1] (setting [10]) it was 33%.
For the compound `CC(=O)N[C@H]1[C@H](O[C@H]2[C@H](O)[C@@H](NC(C)=O)[C@H](O[C@H]3[C@H](O)[C@@H](NC(C)=O)[C@H](O[C@H]4[C@H](O)[C@@H](NC(C)=O)C(O)O[C@@H]4CO[C@@H]4O[C@@H](C)[C@@H](O)[C@@H](O)[C@@H]4O)O[C@@H]3CO)O[C@@H]2CO)O[C@H](CO)[C@@H](O[C@@H]2O[C@H](CO)[C@@H](O)[C@H](O)[C@H]2N)[C@@H]1O` (some centres unmarked) [Compound 6], the “% Growth” value is on record as 73 ± 7.5% with rat aorta [1] (setting [13]) and 53 ± 4.8% in the assay with rat aorta [1] (setting [4]). Besides, the “% Inhibit.” value with rat aorta [1] (setting [14]) is 11%; in the assay on rat aorta [1] (setting [5]), 35%. Moreover, the “Inhibition of HUVEC cell “tiling” and/or change in tube morphology+/−” value in assay [3] is on record as “Yes”.
Regarding `CC(=O)N[C@H]1[C@H](O[C@H]2[C@H](O)[C@@H](NC(C)=O)[C@H](O[C@H]3[C@H](O)[C@@H](NC(C)=O)[C@H](O[C@H]4[C@H](O)[C@@H](NC(C)=O)C(O)O[C@@H]4CO[C@@H]4O[C@@H](C)[C@@H](O)[C@@H](O)[C@@H]4O)O[C@@H]3CO)O[C@@H]2CO)O[C@H](CO)[C@@H](O[C@@H]2O[C@H](CO)[C@@H](O)[C@H](O)[C@H]2N=[N+]=[N-])[C@@H]1O` (some centres unmarked) [Compound 26], the “% Inhibition” value in the assay with rat aorta [1] (setting [7]) is 3%; with rat aorta [1] (setting [8]) it was 15%.
On to `CO[C@@H]1[C@H](OC[C@H]2OC(O)[C@H](NC(C)=O)[C@@H](O)[C@@H]2O[C@@H]2O[C@H](CO)[C@@H](O[C@@H]3O[C@H](CO)[C@@H](O[C@@H]4O[C@H](CO)[C@@H](O[C@@H]5O[C@H](CO)[C@@H](O)[C@H](O)[C@H]5N)[C@H](O)[C@H]4NC(C)=O)[C@H](O)[C@H]3NC(C)=O)[C@H](O)[C@H]2NC(C)=O)O[C@@H](C)[C@@H](O)[C@H]1O` (some centres unmarked) [Compound 7], for which the “% Growth” value is reported as 94 ± 4.0% in the assay on rat aorta [1] (setting [13]) and 90 ± 6.3% in the assay on rat aorta [1] (setting [4]). Moreover, the “Inhibition of HUVEC cell “tiling” and/or change in tube morphology+/−” value in assay [3] is “Yes”.
Consider `CC(=O)N[C@H]1[C@H](O[C@H]2[C@H](O)[C@@H](NC(C)=O)[C@H](O[C@H]3[C@H](O)[C@@H](NC(C)=O)[C@H](O[C@H]4[C@H](O)[C@@H](NC(C)=O)C(O)O[C@@H]4CO)O[C@@H]3CO)O[C@@H]2CO)O[C@H](CO)[C@@H](O[C@@H]2O[C@H](CO)[C@@H](O)[C@H](O)[C@H]2N)[C@@H]1O` (some centres unmarked) [Compound 1], for which the “% Growth” value in the assay with rat aorta [1] (setting [13]) is 80 ± 8.4%; in the assay with rat aorta [1] (setting [4]) it was 53 ± 8.0%. The “% Inhibit.” value with rat aorta [1] (setting [14]) worked out at 2.4%; in the assay on rat aorta [1] (setting [5]), 35%. Moreover, the “Inhibition of HUVEC cell “tiling” and/or change in tube morphology+/−” value in assay [3] is “Yes”.
